From US20110059850A1, “PHYTOTOXIC HALOGENATED DERIVATIVES OF BENZOXAZINONES” (UNIVERSIDAD DE CÁDIZ, priority 2006, published 2011)

Tests used:
[1] = system: Lolium rigidum L. (ryegrass), common biotype and biotype multiresistant to herbicides SLR31; assay: phytotoxicity bioassay in Petri dishes, L. rigidum biotypes; format: in vivo; conditions: common biotype versus multiresistant biotype SLR31
Method: (§1) The phytotoxicity bioassays for the compounds object of the invention are performed by means of the protocol of phytotoxicity bioassays in Petri dishes developed by the Grupo de Alelopatía de Cádiz (Cádiz Allelopathy Group) (see, for example: Macías, F. A.; Castellano, D.; Molinillo, J. M. G.; J. Agric. Food Chem. 2000, 48, 6, 2512-2521).
(§2) This assay attempts to imitate the natural conditions of the action of the products to be assayed on seeds of selected plant species, therefore the products are supplied in the form of aqueous solution in a Petri dish in which a certain number of seeds of each receiving species is introduced. The concentration range used allows observing the relationship between the phytotoxic activity of the product and its concentration. The dilutions assayed were 10^−3 M, 5·10^−4 M, 10^−4 M, 5·10^−5 M, 10^−5 M, 5·10^−6 M, 10^−6 M, 5·10^−7, 10^−7 and 5·10^−8. These solutions are buffered at pH=6 using to that end a 10 mM solution of 2-[N-morpholino]-ethanesulfonic acid (MES) the pH of which is adjusted to the desired value by means of adding a 1M solution of NaOH. The blank of this experiment is distilled and deionized water also buffered with MES but in which there is no product dissolved. […]

[2] = system: Lepidium sativum L. (watercress); assay: phytotoxicity bioassay in Petri dishes, radicle length; format: in vivo; conditions: sigmoid type dose-response model, pH 6, 25° C., dark
Method: as §1, §2

SMILES	most affected L. rigidum biotype [1]	IC50 [2]
O=C1COc2ccc(F)cc2N1O [Compound II, 6-fluoro-4-hydroxy-(2H)-1,4-benzoxazin-3(4H)-one]	the multiresistant biotype was the most affected	–
O=C1COc2ccc(Cl)cc2N1O [VII, 6-chloro-4-hydroxy-(2H)-1,4-benzoxazin-3(4H)-one]	the opposite trend	~58 nM
